As usually defined, the IC50 is the concentration that gives 50% inhibition.

This experiment addresses T1, Recombinant (1-346) HPK1 (h) (Homo sapiens, UniProt Q92918).
T1 construct: Recombinant (1-346) HPK1 (h) is incubated with 8 mM MOPS pH 7.0
T1 sequence (Q92918 1-346): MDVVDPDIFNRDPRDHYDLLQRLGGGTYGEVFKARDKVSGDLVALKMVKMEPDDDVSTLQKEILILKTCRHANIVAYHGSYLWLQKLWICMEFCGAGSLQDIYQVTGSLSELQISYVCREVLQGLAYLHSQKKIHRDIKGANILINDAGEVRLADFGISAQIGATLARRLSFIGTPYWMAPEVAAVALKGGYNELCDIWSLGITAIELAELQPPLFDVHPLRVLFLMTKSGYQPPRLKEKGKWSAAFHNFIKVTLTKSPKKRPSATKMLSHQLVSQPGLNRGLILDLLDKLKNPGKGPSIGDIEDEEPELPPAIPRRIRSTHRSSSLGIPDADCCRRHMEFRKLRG
The experiment is described as follows: HPK1 human STE kinase enzymatic radiometric assay. It counts as biochemical. The settings on record: read-out: HPK1 IC50 nM Range. The protocol:
(a) HPK1 Human STE Kinase Enzymatic Radiometric Assay
A stock solution of 10 mM of test compound is prepared in DMSO. The compound plate was prepared by 3-fold and 9-point serial dilutions. Recombinant (1-346) HPK1 (h) is incubated with 8 mM MOPS pH 7.0, 0.2 mM EDTA, 0.33 mg/mL myelin basic protein, 10 mM MgAcetate and [gamma-33P]-ATP (specific activity and concentration as required). The reaction is initiated by the addition of the Mg/ATP mix. After incubation for 40 minutes at RT, the reaction is stopped by the addition of phosphoric acid to a concentration of 0.5%, 10 μL of the reaction is then spotted onto a P30 filtermat and washed four times for 4 minutes in 0.425% phosphoric acid and once in methanol prior to drying and scintillation counting. For more details of kinase assay protocols, see: Gao, Y. et. al.; Biochem J.451 (2): 313-328, 2013.
As to `Nc1nc(F)c(-c2ccc(N3CCOCC3)c(CN3CCCC3)c2)nc1-c1cc(F)c2c(c1)CCNC2=O` [Example I-112, 6-(3-amino-5-fluoro-6-(4-morpholino-3-(pyrrolidin-1-ylmethyl)phenyl)pyrazin-2-yl)-8-fluoro-3,4-dihydroisoquinolin-1(2H)-one], the IC50 fell in the range of 0.1 to 10 nM.

Consider `Cc1c[nH]c(=O)c2ccc(-c3nc(-c4cccc(CN(C)C)c4)c(F)nc3N)cc12` [Example I-280, 6-(3-amino-6-(3-((dimethylamino)methyl)phenyl)-5-fluoropyrazin-2-yl)-4-methylisoquinolin-1(2H)-one], for which the IC50 is 11 to 100 nM.

In the case of `Nc1nc(F)c(-c2ccc(N3CCOCC3)cc2)nc1-c1cc2c(cc1F)C(=O)NCC2` [Example I-34, 6-(3-amino-5-fluoro-6-(4-morpholinophenyl)pyrazin-2-yl)-7-fluoro-3,4-dihydroisoquinolin-1(2H)-one], the IC50 was 0.1 to 10 nM.

`Nc1nc(F)c(-c2ccc(C3CCOCC3)c(CN3CCCC3)c2)nc1-c1ccc2c(=O)[nH]cc(F)c2c1` [Example I-207, 6-(3-amino-5-fluoro-6-(3-(pyrrolidin-1-ylmethyl)-4-(tetrahydro-2H-pyran-4-yl)phenyl)pyrazin-2-yl)-4-fluoroisoquinolin-1(2H)-one]: the IC50 fell in the range of 0.1 to 10 nM.

`CCN(C)Cc1cc(-c2nc(-c3ccc4c(=O)[nH]cc(C)c4c3)c(N)nc2F)ccc1C1CCOCC1` [Example I-239, 6-(3-amino-6-(3-((ethyl(methyl)amino)methyl)-4-(tetrahydro-2H-pyran-4-yl)phenyl)-5-fluoropyrazin-2-yl)-4-methylisoquinolin-1(2H)-one]: the IC50 was 0.1 to 10 nM.

As to `CN(C)Cc1cccc(-c2nc(-c3cc(F)c4c(c3)CCNC4=O)c(N)nc2F)c1` [Example I-279, 6-(3-amino-6-(3-((dimethylamino)methyl)phenyl)-5-fluoropyrazin-2-yl)-8-fluoro-3,4-dihydroisoquinolin-1(2H)-one], the IC50 is 11 to 100 nM.

Take `COC1CCN(Cc2cc(-c3nc(-c4cc5c(cc4F)C(=O)NCC5)c(N)nc3F)ccc2N2CCOCC2)CC1` [Example I-118, 6-(3-amino-5-fluoro-6-(3-((4-methoxypiperidin-1-yl)methyl)-4-morpholinophenyl)pyrazin-2-yl)-7-fluoro-3,4-dihydroisoquinolin-1(2H)-one]: the IC50 lay within 11 to 100 nM.

As to `CN(C)Cc1c(N2CCOCC2)ccc(-c2nc(-c3ccc4c(c3)CCNC4=O)c(N)nc2F)c1F` [Example I-240], the IC50 lay in the range of 11 to 100 nM.

Regarding `COc1ccc(-c2nc(-c3ccc4c(=O)[nH]cc(F)c4c3)c(N)nc2F)cc1C(C)N(C)C` (stereo not shown) [Example I-291, 6-(3-amino-6-(3-(1-(dimethylamino)ethyl)-4-methoxyphenyl)-5-fluoropyrazin-2-yl)-4-fluoroisoquinolin-1(2H)-one], the IC50 was in the range of 0.1 to 10 nM.

With `CN(C)Cc1cc(-c2nc(-c3ccc4c(c3)C3(CC3)CNC4=O)c(N)nc2F)ccc1N1CCOCC1` [Example I-105, 6′-(3-amino-6-(3-((dimethylamino)methyl)-4-morpholinophenyl)-5-fluoropyrazin-2-yl)-2′,3′-dihydro-1′H-spiro[cyclopropane-1,4′-isoquinolin]-1′-one], the IC50 lay in the range of 0.1 to 10 nM.

As for `CC(C)N1CCN(c2ccc(-c3nc(-c4cc5c(F)c[nH]c(=O)c5cc4F)c(N)nc3F)cc2)CC1` [Example I-140, 6-(3-amino-5-fluoro-6-(4-(4-isopropylpiperazin-1-yl)phenyl)pyrazin-2-yl)-4,7-difluoroisoquinolin-1(2H)-one], the IC50 lay within 0.1 to 10 nM.

On to `CN(C)Cc1cc(-c2nc(-c3ccc4c(c3)CCNC4=O)c(N)nc2F)ccc1OCC1CCOCC1` [Example I-178, 6-(3-amino-6-(3-((dimethylamino)methyl)-4-((tetrahydro-2H-pyran-4-yl)methoxy)phenyl)-5-fluoropyrazin-2-yl)-3,4-dihydroisoquinolin-1(2H)-one], for which the IC50 lay in the range of 0.1 to 10 nM.

Turning to `Cc1nc2cc(-c3nc(-c4ccc(C5CCOCC5)c(CN5CCC[C@H]5C)c4)c(F)nc3N)cc(F)c2c(=O)[nH]1` [Example I-217, (R)-7-(3-amino-5-fluoro-6-(3-((2-methylpyrrolidin-1-yl)methyl)-4-(tetrahydro-2H-pyran-4-yl)phenyl)pyrazin-2-yl)-5-fluoro-2-methylquinazolin-4(3H)-one], the IC50 is 11 to 100 nM.

As for `CCN(C)Cc1cc(-c2nc(-c3ccc4c(=O)[nH]cc(F)c4c3)c(N)nc2F)ccc1C1=CCOCC1` [Example I-282, 6-(3-amino-6-(4-(3,6-dihydro-2H-pyran-4-yl)-3-((ethyl(methyl)amino)methyl)phenyl)-5-fluoropyrazin-2-yl)-4-fluoroisoquinolin-1(2H)-one], the IC50 was 11 to 100 nM.

With `Nc1nc(F)c(-c2ccc(N3CCOCC3)c(CN3CCC3)c2)nc1-c1ccc2c(c1)CCNC2=O` [Example I-144, 6-(3-amino-6-(3-(azetidin-1-ylmethyl)-4-morpholinophenyl)-5-fluoropyrazin-2-yl)-3,4-dihydroisoquinolin-1(2H)-one], the concentration for half-maximal inhibition (IC50) lay within 0.1 to 10 nM.

`CC(C)(N)c1cc(-c2nc(-c3ccc4c(c3)CCNC4=O)c(N)nc2F)ccc1F` [Example I-271, 6-(3-amino-6-(3-(2-aminopropan-2-yl)-4-fluorophenyl)-5-fluoropyrazin-2-yl)-3,4-dihydroisoquinolin-1(2H)-one]: the IC50 is 101 to 1000 nM.

Consider `Nc1nc(F)c(-c2ccc(N3CCN(C4CCC4)CC3)cc2)nc1-c1cc(F)c2c(c1)CCNC2=O` [Example I-47, 6-(3-amino-6-(4-(4-cyclobutylpiperazin-1-yl)phenyl)-5-fluoropyrazin-2-yl)-8-fluoro-3,4-dihydroisoquinolin-1(2H)-one], for which the IC50 lay within 0.1 to 10 nM.

`CN(C)Cc1cc(-c2nc(-c3cc4c(cc3F)C(=O)NCC4)c(N)nc2F)ccc1OCC1CCOCC1` [Example I-179, 6-(3-amino-6-(3-((dimethylamino)methyl)-4-((tetrahydro-2H-pyran-4-yl)methoxy)phenyl)-5-fluoropyrazin-2-yl)-7-fluoro-3,4-dihydroisoquinolin-1(2H)-one]: the half-inhibitory concentration (IC50) was in the range of 0.1 to 10 nM.

Take `C[C@@H]1CN(C)CCN1c1ccc(-c2nc(-c3cc4c(cc3F)C(=O)NCC4)c(N)nc2F)cc1` [Example I-53, (R)-6-(3-amino-6-(4-(2,4-dimethylpiperazin-1-yl)phenyl)-5-fluoropyrazin-2-yl)-7-fluoro-3,4-dihydroisoquinolin-1(2H)-one]: the IC50 was in the range of 0.1 to 10 nM.

`COC1CN(Cc2cc(-c3nc(-c4cc(F)c5c(c4)CCNC5=O)c(N)nc3F)ccc2C2CCOCC2)C1` [Example I-191, 6-(3-amino-5-fluoro-6-(3-((3-methoxyazetidin-1-yl)methyl)-4-(tetrahydro-2H-pyran-4-yl)phenyl)pyrazin-2-yl)-8-fluoro-3,4-dihydroisoquinolin-1(2H)-one]: the half-inhibitory concentration (IC50) fell in the range of 0.1 to 10 nM.

For the compound `Cc1c[nH]c(=O)c2ccc(-c3nc(-c4ccc(O)c(C(C)N(C)C)c4)c(F)nc3N)cc12` (stereo not shown) [Example I-304, 6-(3-amino-6-(3-(1-(dimethylamino)ethyl)-4-hydroxyphenyl)-5-fluoropyrazin-2-yl)-4-methylisoquinolin-1(2H)-one], the 50% inhibitory concentration (IC50) was 0.1 to 10 nM.

Turning to `COC1CCN(Cc2cc(-c3nc(-c4cc5c(cc4F)C(=O)NCC5)c(N)nc3F)ccc2N2CCOCC2)C1` (stereo not shown) [Example I-134, 6-(3-amino-5-fluoro-6-(3-((3-methoxypyrrolidin-1-yl)methyl)-4-morpholinophenyl)pyrazin-2-yl)-7-fluoro-3,4-dihydroisoquinolin-1(2H)-one], the IC50 lay in the range of 0.1 to 10 nM.
